The values below come from patent US20180273480A1, “INOSITOL NICOTINATE CRYSTALLINE FORM A AND PREPARATION METHOD THEREFOR” (WEIFANG SHENGYU PHARMA CO., LTD., priority 2015, published 2018).

The conditions of data set [1]: cited from earlier work.
Data set [2] is described as follows: Storage stability of the crystal form at 40° C. and 75% RH for six months, XRPD comparison (FIG. 5). It is filed as physicochemical. To be noted: stored at 40° C. and 75% RH for six months. The procedure:
FIG. 5 is an X-ray powder diffraction (XRPD) comparison diagram of crystal form A of inositol nicotinate provided by the present invention stored for half a year at 40° C. and under the condition of 75% of relative humidity.
XRPD analysis: It was detected at room temperature using a Bruker D8 advance type diffractometer from German Brook Instrument Co., Ltd by Cu-Kα rays (λ=1.5418 Å), with a 2θ angle scanning from 3° to 40°, and the scanning speed was 0.2°/second.
The crystal form A of inositol nicotinate obtained in the above examples was stored under conditions of 40° C. and 75% RH for six months.

On to `O=C(O[C@H]1[C@H](OC(=O)c2cccnc2)[C@@H](OC(=O)c2cccnc2)[C@H](OC(=O)c2cccnc2)[C@@H](OC(=O)c2cccnc2)[C@H]1OC(=O)c1cccnc1)c1cccnc1` [Inositol nicotinate, cis-1,2,3,5-trans-4,6-cyclohexanehexol niacinate], for which the solubility in chloroform entry in data set [1] (chloroform) is given as “very slightly soluble”. Also, the solubility in ethanol result in data set [1] (ethanol and other organic solvents) was “insoluble”. The “solubility in dimethyl sulfoxide” value in data set [1] (hot dimethylformamide or dimethyl sulfoxide) is “only soluble”. Besides, in data set [1] (hot dimethylformamide), the “solubility in hot dimethylformamide” value is “only soluble”. For the same molecule, the solubility in water result in data set [1] (water) is on record as “insoluble”.
For `O=C(O[C@H]1[C@H](OC(=O)c2cccnc2)[C@@H](OC(=O)c2cccnc2)[C@H](OC(=O)c2cccnc2)[C@@H](OC(=O)c2cccnc2)[C@H]1OC(=O)c1cccnc1)c1cccnc1` [crystal form A of inositol nicotinate, cis-1,2,3,5-trans-4,6-cyclohexanehexol niacinate], in data set [2], the “crystal form after storage (physical stability, XRPD comparison)” value is “has not changed”.
